We go through two compounds from article PMC11053151, “Anti-inflammatory and anti-diabetic properties of indanone derivative isolated from Fernandoa adenophylla in vitro and in silico studies” (Scientific Reports, 2024).

Molecules are shown by their SMILES.

As usually defined, the IC50 is the concentration that gives 50% inhibition. A lower IC50 goes with higher potency.

Assay [1] deals with T1, α-amylase (porcine pancreatic amylase) (Sus scrofa, UniProt P00690).
T1 construct: gene AMY2
T1 sequence (P00690 16-511): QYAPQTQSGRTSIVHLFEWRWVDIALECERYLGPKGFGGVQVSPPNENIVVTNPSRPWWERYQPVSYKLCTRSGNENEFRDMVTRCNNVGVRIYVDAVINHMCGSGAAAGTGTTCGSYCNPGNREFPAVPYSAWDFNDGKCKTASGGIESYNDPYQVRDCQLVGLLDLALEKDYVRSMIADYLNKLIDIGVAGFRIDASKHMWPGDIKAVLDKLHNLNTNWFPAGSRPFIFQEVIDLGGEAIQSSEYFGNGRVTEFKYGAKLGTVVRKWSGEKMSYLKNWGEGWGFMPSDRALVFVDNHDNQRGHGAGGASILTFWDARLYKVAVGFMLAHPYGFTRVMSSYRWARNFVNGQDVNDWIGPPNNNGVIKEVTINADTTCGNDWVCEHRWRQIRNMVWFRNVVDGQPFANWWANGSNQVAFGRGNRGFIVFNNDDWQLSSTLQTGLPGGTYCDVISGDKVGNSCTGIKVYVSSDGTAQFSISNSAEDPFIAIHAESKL
Put plainly: starch hydrolysis / dinitrosalicylate colorimetric alpha-amylase inhibition assay; percent inhibition at […] µg. The assay is classed as biochemical.

Assay [2] deals with T1, α-amylase (porcine pancreatic amylase). The assay is described as follows: starch hydrolysis / dinitrosalicylate colorimetric alpha-amylase inhibition assay. The assay is classed as biochemical.

Regarding `C[C@H]1O[C@H](O[C@H]2[C@H](O)[C@@H](O)[C@@H](O[C@H]3[C@H](O)[C@@H](O)C(O)O[C@@H]3CO)O[C@@H]2CO)[C@H](O)[C@@H](O)[C@@H]1N[C@H]1C=C(CO)[C@@H](O)[C@H](O)[C@H]1O` (some centres unmarked) [acarbose], the “%” value in assay [1] came out at 87.08 ± 1.328%.

Consider `COC(=O)[C@@]1(O)c2ccccc2C(=O)[C@]1(O)CC=C(C)C` [indanone derivative, methyl (1R trans, 2S trans)-1,2-dihydroxy-2-(3-methylbut-2-en-1-yl)-3-oxo-2,3-dihydro-1H-indene-1-carboxylate], for which it took 46.4 µM to reach half-maximal inhibition in assay [2] (IC50).
